Our source for the IC50 values is patent publication US20060252807A1, “Novel ortho-terphenyl inhibitors of p38 kinase and methods of treating inflammatory disorders” (Kalypsys, Inc., priority 2005, published 2006).

Each structure is given as a SMILES string.

As usually defined, the IC50 is the point on the concentration scale where inhibition reaches its midpoint. High values mean weaker potency in that assay, low ones greater potency in that assay.

The target in this test is T1, active p38 alpha enzyme (Upstate Biotechnology) (Homo sapiens, UniProt Q16539).
T1 construct: purchased Upstate Biotechnology
T1 sequence (Q16539 whole entry): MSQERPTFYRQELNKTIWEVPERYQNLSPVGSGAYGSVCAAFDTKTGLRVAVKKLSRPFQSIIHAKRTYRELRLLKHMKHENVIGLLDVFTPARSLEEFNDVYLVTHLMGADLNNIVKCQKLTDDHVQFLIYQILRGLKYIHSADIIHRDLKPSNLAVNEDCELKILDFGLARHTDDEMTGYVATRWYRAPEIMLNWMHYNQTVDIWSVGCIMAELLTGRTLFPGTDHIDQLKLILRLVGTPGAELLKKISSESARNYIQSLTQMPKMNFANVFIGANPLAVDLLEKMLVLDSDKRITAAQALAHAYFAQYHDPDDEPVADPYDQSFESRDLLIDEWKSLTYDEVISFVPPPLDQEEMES
Description: p38α biochemical assay (ATP turnover, luminescent detection, Cambrex PKlight). The settings on record: p38α kinase; Table 1 Biological Activity. The procedure, abridged:
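In this kinase reaction, p38α used MapkapK2 as phosphorylation substrate at low ATP (1.4 uM final) over 2 hours at 30C, and activity was followed as ATP turnover by luminescence.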
`CC(C)NC(=O)c1csc(-c2c(-c3ccc(F)cc3)n[nH]c2C2CCN(C(=O)C3CN(C(=O)OC(C)(C)C)CCN3)CC2)n1` (stereo not drawn) [Example 1029]: the IC50 is no more than 1000 nM. The figure for `COc1ccc(Br)c(C(=O)N2CCC(c3[nH]nc(-c4ccc(F)cc4)c3-c3nc(C(=O)NC(C)C)cs3)CC2)c1` [Example 1030] is greater than 1000 nM. `CC(C)NC(=O)c1csc(-c2c(-c3ccc(F)cc3)n[nH]c2C2CCN(C(=O)C3CC(O)CN3C(=O)OC(C)(C)C)CC2)n1` (stereo not drawn) [Example 1031] had an IC50 of no more than 1000 nM.

With `CC(C)NC(=O)c1csc(-c2c(-c3ccc(F)cc3)n[nH]c2C2CCN(C(=O)C(C(C)C)N(C)C(=O)OC(C)(C)C)CC2)n1` (stereo not drawn) [Example 1032], the IC50 was no more than 1000 nM. In the case of `CC(C)NC(=O)c1csc(-c2c(-c3ccc(F)cc3)n[nH]c2C2CCN(C(=O)c3ccc(C(F)(F)F)cc3[N+](=O)[O-])CC2)n1` [Example 1033] it was greater than 1000 nM; in that of `CC(C)NC(=O)c1csc(-c2c(-c3ccc(F)cc3)n[nH]c2C2CCN(C(=O)c3cc(Br)ccc3Cl)CC2)n1` [Example 1034], greater than 1000 nM.

As for `CC(C)NC(=O)c1csc(-c2c(-c3ccc(F)cc3)n[nH]c2C2CCN(C(=O)c3ccc(Cl)c(Br)c3)CC2)n1` [Example 1035], the IC50 was greater than 1000 nM. `CC(C)NC(=O)c1csc(-c2c(-c3ccc(F)cc3)n[nH]c2C2CCN(C(=O)c3ccccc3C(=O)c3ccc(O)cc3)CC2)n1` [Example 1036] showed an IC50 greater than 1000 nM.

On to `CC(C)NC(=O)c1csc(-c2c(-c3ccc(F)cc3)n[nH]c2C2CCN(C(=O)c3ccccc3C(=O)c3ccc(F)cc3)CC2)n1` [Example 1037], for which the IC50 is greater than 1000 nM.

Regarding `CC(C)NC(=O)c1csc(-c2c(-c3ccc(F)cc3)n[nH]c2C2CCN(C(=O)C(C)c3ccc(-c4ccccc4)c(F)c3)CC2)n1` (stereo not drawn) [Example 1038], the IC50 is greater than 1000 nM. As to `CC(C)NC(=O)c1csc(-c2c(-c3ccc(F)cc3)n[nH]c2C2CCN(C(=O)C3CCCN3C(=O)OCc3ccccc3)CC2)n1` (stereo not drawn) [Example 1041], the IC50 is greater than 1000 nM.

`CCC(C)C(NC(=O)OC(C)(C)C)C(=O)N1CCC(c2[nH]nc(-c3ccc(F)cc3)c2-c2nc(C(=O)NC(C)C)cs2)CC1` (stereo not drawn) [Example 1042] returned an IC50 greater than 1000 nM. The figure for `CC(C)CC(NC(=O)OC(C)(C)C)C(=O)N1CCC(c2[nH]nc(-c3ccc(F)cc3)c2-c2nc(C(=O)NC(C)C)cs2)CC1` (stereo not drawn) [Example 1043] is no more than 1000 nM; for `CC(C)NC(=O)c1csc(-c2c(-c3ccc(F)cc3)n[nH]c2C2CCN(C(=O)C(C)c3cccc(C(=O)c4ccccc4)c3)CC2)n1` (stereo not drawn) [Example 1044] it is greater than 1000 nM; for `CC(C)NC(=O)c1csc(-c2c(-c3ccc(F)cc3)n[nH]c2C2CCN(C(=O)C(Cc3ccccc3)NC(=O)OC(C)(C)C)CC2)n1` (stereo not drawn) [Example 1045] it is greater than 1000 nM. For the compound `CC(C)NC(=O)c1csc(-c2c(-c3ccc(F)cc3)n[nH]c2C2CCN(C(=O)C(Cc3ccccn3)NC(=O)OC(C)(C)C)CC2)n1` (stereo not drawn) [Example 1046], the IC50 was greater than 1000 nM. As to `CC(C)NC(=O)c1csc(-c2c(-c3ccc(F)cc3)n[nH]c2C2CCN(C(=O)C3Cc4ccccc4CN3C(=O)OC(C)(C)C)CC2)n1` (stereo not drawn) [Example 1047], the IC50 was greater than 1000 nM.

`CC(C)NC(=O)c1csc(-c2c(-c3ccc(F)cc3)n[nH]c2C2CCN(C(=O)C(Cc3ccc(O)cc3)NC(=O)OC(C)(C)C)CC2)n1` (stereo not drawn) [Example 1048] registered an IC50 greater than 1000 nM. Regarding `CNCc1nc(-c2ccc(F)cc2)c(-c2nc(C(=O)NC(C)C)cs2)o1` [Example 1049], the IC50 was greater than 1000 nM. In turn, `CCNCc1nc(-c2ccc(F)cc2)c(-c2nc(C(=O)NC(C)C)cs2)o1` [Example 1050] came in with a half-inhibitory concentration (IC50) greater than 1000 nM.

In the case of `C#CCNCc1nc(-c2ccc(F)cc2)c(-c2nc(C(=O)NC(C)C)cs2)o1` [Example 1051], the half-maximal inhibitory concentration (IC50) is greater than 1000 nM. Take `CC(C)NC(=O)c1csc(-c2oc(CNCC#N)nc2-c2ccc(F)cc2)n1` [Example 1052]: the half-inhibitory concentration (IC50) was greater than 1000 nM. The compound `CC(C)NC(=O)c1csc(-c2oc(CNC3CC3)nc2-c2ccc(F)cc2)n1` [Example 1053] yielded an IC50 greater than 1000 nM. Compound `CC(C)NCc1nc(-c2ccc(F)cc2)c(-c2nc(C(=O)NC(C)C)cs2)o1` [Example 1054] showed an IC50 greater than 1000 nM. As to `CCCNCc1nc(-c2ccc(F)cc2)c(-c2nc(C(=O)NC(C)C)cs2)o1` [Example 1055], the IC50 was greater than 1000 nM. `CC(C)NC(=O)c1csc(-c2oc(CNCCN)nc2-c2ccc(F)cc2)n1` [Example 1056] gave an IC50 greater than 1000 nM. As for `CC(C)NC(=O)c1csc(-c2oc(CNCCO)nc2-c2ccc(F)cc2)n1` [Example 1057], the 50% inhibitory concentration (IC50) was greater than 1000 nM.

`CC(C)NC(=O)c1csc(-c2oc(CNCCC#N)nc2-c2ccc(F)cc2)n1` [Example 1058] came in with a half-maximal inhibitory concentration (IC50) greater than 1000 nM.

For the compound `CC(C)NC(=O)c1csc(-c2oc(CNC3CCC3)nc2-c2ccc(F)cc2)n1` [Example 1059], the concentration for half-maximal inhibition (IC50) was greater than 1000 nM.

On to `CC(C)NC(=O)c1csc(-c2oc(CNCC3CC3)nc2-c2ccc(F)cc2)n1` [Example 1060], for which the IC50 was greater than 1000 nM. In turn, `CCC(C)NCc1nc(-c2ccc(F)cc2)c(-c2nc(C(=O)NC(C)C)cs2)o1` (stereo not drawn) [Example 1061] returned a half-maximal inhibitory concentration (IC50) greater than 1000 nM. On to `CC(C)CNCc1nc(-c2ccc(F)cc2)c(-c2nc(C(=O)NC(C)C)cs2)o1` [Example 1062], for which the 50% inhibitory concentration (IC50) is greater than 1000 nM. Turning to `CC(C)NC(=O)c1csc(-c2oc(CNCCCO)nc2-c2ccc(F)cc2)n1` [Example 1063], the concentration for half-maximal inhibition (IC50) is greater than 1000 nM. The figure for `CC(C)NC(=O)c1csc(-c2oc(CNC(C)CO)nc2-c2ccc(F)cc2)n1` (stereo not drawn) [Example 1064] is no more than 1000 nM; for `COCCNCc1nc(-c2ccc(F)cc2)c(-c2nc(C(=O)NC(C)C)cs2)o1` [Example 1065] it is no more than 1000 nM.

`CC(C)NC(=O)c1csc(-c2oc(CNC3CCCC3)nc2-c2ccc(F)cc2)n1` [Example 1066]: the concentration for half-maximal inhibition (IC50) was greater than 1000 nM. The compound `CCCC(C)NCc1nc(-c2ccc(F)cc2)c(-c2nc(C(=O)NC(C)C)cs2)o1` (stereo not drawn) [Example 1067] gave an IC50 greater than 1000 nM. With `CCC(C)CNCc1nc(-c2ccc(F)cc2)c(-c2nc(C(=O)NC(C)C)cs2)o1` (stereo not drawn) [Example 1068], the half-inhibitory concentration (IC50) is greater than 1000 nM. `CC(C)NC(=O)c1csc(-c2oc(CNC(C)C(C)C)nc2-c2ccc(F)cc2)n1` (stereo not drawn) [Example 1069] showed an IC50 of no more than 1000 nM.

Turning to `CC(C)CCNCc1nc(-c2ccc(F)cc2)c(-c2nc(C(=O)NC(C)C)cs2)o1` [Example 1070], the IC50 was greater than 1000 nM.

For `CC(C)NC(=O)c1csc(-c2oc(CNCCN(C)C)nc2-c2ccc(F)cc2)n1` [Example 1071], the 50% inhibitory concentration (IC50) is greater than 1000 nM. For `COCC(C)NCc1nc(-c2ccc(F)cc2)c(-c2nc(C(=O)NC(C)C)cs2)o1` (stereo not drawn) [Example 1072], the IC50 was greater than 1000 nM. `CCC(CO)NCc1nc(-c2ccc(F)cc2)c(-c2nc(C(=O)NC(C)C)cs2)o1` (stereo not drawn) [Example 1073] returned an IC50 greater than 1000 nM.

Consider `CCC(CO)NCc1nc(-c2ccc(F)cc2)c(-c2nc(C(=O)NC(C)C)cs2)o1` (stereo not drawn) [Example 1074], for which the IC50 is no more than 1000 nM.

In turn, `CC(C)NC(=O)c1csc(-c2oc(CNCCCCO)nc2-c2ccc(F)cc2)n1` [Example 1075] returned an IC50 greater than 1000 nM. The compound `CC(C)NC(=O)c1csc(-c2oc(CNCc3ccco3)nc2-c2ccc(F)cc2)n1` [Example 1076] registered an IC50 greater than 1000 nM. The figure for `CC(C)NC(=O)c1csc(-c2oc(CNC3CCCCC3)nc2-c2ccc(F)cc2)n1` [Example 1077] is greater than 1000 nM. As to `CC(C)NC(=O)c1csc(-c2oc(CNCC3CCCO3)nc2-c2ccc(F)cc2)n1` (stereo not drawn) [Example 1078], the IC50 is greater than 1000 nM.

The compound `CC(C)NC(=O)c1csc(-c2oc(CNCCC(C)(C)C)nc2-c2ccc(F)cc2)n1` [Example 1079] registered an IC50 of no more than 1000 nM. `CC(C)CC(C)NCc1nc(-c2ccc(F)cc2)c(-c2nc(C(=O)NC(C)C)cs2)o1` (stereo not drawn) [Example 1080] returned a concentration for half-maximal inhibition (IC50) greater than 1000 nM.

Take `CC(C)NC(=O)c1csc(-c2oc(CNC3CONC3=O)nc2-c2ccc(F)cc2)n1` (stereo not drawn) [Example 1081]: the 50% inhibitory concentration (IC50) was greater than 1000 nM. Turning to `CC(C)NC(=O)c1csc(-c2oc(CNN3CCOCC3)nc2-c2ccc(F)cc2)n1` [Example 1082], the IC50 is greater than 1000 nM.

`CC(C)NC(=O)c1csc(-c2oc(CNC(CO)C(C)C)nc2-c2ccc(F)cc2)n1` (stereo not drawn) [Example 1083] gave an IC50 greater than 1000 nM.

Regarding `CC(C)NC(=O)c1csc(-c2oc(CNCc3ccccc3)nc2-c2ccc(F)cc2)n1` [Example 1084], the IC50 is greater than 1000 nM.

`CC(C)NC(=O)c1csc(-c2oc(CNCc3cccnc3)nc2-c2ccc(F)cc2)n1` [Example 1085] registered an IC50 greater than 1000 nM. For the compound `CC(C)NC(=O)c1csc(-c2oc(CNCc3ccccn3)nc2-c2ccc(F)cc2)n1` [Example 1086], the half-maximal inhibitory concentration (IC50) was no more than 1000 nM. In the case of `CC(C)NC(=O)c1csc(-c2oc(CNCc3ccncc3)nc2-c2ccc(F)cc2)n1` [Example 1087] it was greater than 1000 nM. With `CC(C)NC(=O)c1csc(-c2oc(CNCc3cccs3)nc2-c2ccc(F)cc2)n1` [Example 1088], the half-maximal inhibitory concentration (IC50) was greater than 1000 nM. For the compound `CC1CCC(NCc2nc(-c3ccc(F)cc3)c(-c3nc(C(=O)NC(C)C)cs3)o2)CC1` (stereo not drawn) [Example 1089], the IC50 is greater than 1000 nM. The figure for `CC(C)NC(=O)c1csc(-c2oc(CNCC3CCCCC3)nc2-c2ccc(F)cc2)n1` [Example 1090] is greater than 1000 nM. Compound `CC(C)NC(=O)c1csc(-c2oc(CNC3CCCCCC3)nc2-c2ccc(F)cc2)n1` [Example 1091] displayed a half-inhibitory concentration (IC50) greater than 1000 nM.

Compound `CC(C)NC(=O)c1csc(-c2oc(CNC3CCCCC3C)nc2-c2ccc(F)cc2)n1` (stereo not drawn) [Example 1092] displayed an IC50 greater than 1000 nM. For the compound `CC(C)NC(=O)c1csc(-c2oc(CNCCN3CCCC3)nc2-c2ccc(F)cc2)n1` [Example 1093], the IC50 was greater than 1000 nM.

`CC(C)NC(=O)c1csc(-c2oc(CNN3CCN(C)CC3)nc2-c2ccc(F)cc2)n1` [Example 1094]: the IC50 was greater than 1000 nM. As for `CCN(CC)CCNCc1nc(-c2ccc(F)cc2)c(-c2nc(C(=O)NC(C)C)cs2)o1` [Example 1095], the IC50 is greater than 1000 nM. With `Cc1cccc(CNCc2nc(-c3ccc(F)cc3)c(-c3nc(C(=O)NC(C)C)cs3)o2)c1` [Example 1096], the IC50 is greater than 1000 nM.
